The subject of assay [1] is SW480. The assay can be described thus: Anticancer activity against human SW480 cells assessed as reduction in cell viability incubated for 72 hrs. The conditions noted are these: SW480, 72 h. The assay is classed as functional, cell-based.
Assay [2] relates to HCT-116. The assay can be described thus: Anticancer activity against human HCT-116 cells assessed as reduction in cell viability incubated for 72 hrs. The assay is classed as functional, cell-based. As to conditions: HCT-116, 72 h.
In assay [3] the target is Ubiquitin carboxyl-terminal hydrolase 7 (Homo sapiens, UniProt Q93009). The assay can be described thus: Inhibition of recombinant full length wild type human Flag-tagged USP7 expressed in human HEK293 cells using Ub-AMC as substrate by fluorometric assay.
Ubiquitin carboxyl-terminal hydrolase 7, sequence (Q93009 whole entry): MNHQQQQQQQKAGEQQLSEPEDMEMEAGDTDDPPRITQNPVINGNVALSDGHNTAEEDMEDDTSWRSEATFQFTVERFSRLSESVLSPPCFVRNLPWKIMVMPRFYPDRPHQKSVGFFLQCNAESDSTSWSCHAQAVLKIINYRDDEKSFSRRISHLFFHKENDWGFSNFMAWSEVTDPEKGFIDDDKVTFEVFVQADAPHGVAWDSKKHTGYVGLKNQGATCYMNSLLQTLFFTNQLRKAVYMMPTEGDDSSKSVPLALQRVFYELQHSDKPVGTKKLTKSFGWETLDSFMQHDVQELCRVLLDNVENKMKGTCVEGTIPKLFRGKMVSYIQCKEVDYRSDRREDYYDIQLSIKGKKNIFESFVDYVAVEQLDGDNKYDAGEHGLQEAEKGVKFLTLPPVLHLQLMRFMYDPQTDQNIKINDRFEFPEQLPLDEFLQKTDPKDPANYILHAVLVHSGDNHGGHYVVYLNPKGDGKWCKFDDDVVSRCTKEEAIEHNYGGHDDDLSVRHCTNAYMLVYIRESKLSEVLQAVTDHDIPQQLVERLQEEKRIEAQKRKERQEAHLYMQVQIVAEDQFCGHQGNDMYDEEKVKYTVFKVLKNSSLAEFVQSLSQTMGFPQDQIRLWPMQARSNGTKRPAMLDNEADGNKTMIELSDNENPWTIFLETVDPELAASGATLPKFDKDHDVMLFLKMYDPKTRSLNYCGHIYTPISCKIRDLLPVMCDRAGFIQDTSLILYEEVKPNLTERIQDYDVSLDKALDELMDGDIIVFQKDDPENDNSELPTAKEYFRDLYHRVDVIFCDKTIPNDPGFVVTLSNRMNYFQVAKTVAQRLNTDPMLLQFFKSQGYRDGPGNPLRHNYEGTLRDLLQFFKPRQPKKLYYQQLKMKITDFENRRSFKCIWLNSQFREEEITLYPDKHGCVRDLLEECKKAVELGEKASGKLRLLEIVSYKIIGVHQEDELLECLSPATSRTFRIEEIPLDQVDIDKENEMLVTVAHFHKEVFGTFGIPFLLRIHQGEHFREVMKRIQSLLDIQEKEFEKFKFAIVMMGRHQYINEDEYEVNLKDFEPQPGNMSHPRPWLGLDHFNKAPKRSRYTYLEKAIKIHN
For assay [4], the system named is SW480. The assay can be described thus: Anticancer activity against human SW480 cells assessed as reduction in cell viability incubated for 72 hrs by MTT assay. The assay is classed as functional, cell-based. As to conditions: SW480, 72 h.
The subject of assay [5] is HCT-116. The assay can be described thus: Anticancer activity against human HCT-116 cells assessed as reduction in cell viability incubated for 48 hrs by MTT assay. In kind it is functional, cell-based. As to conditions: HCT-116, 48 h. For orientation: Tetrazolium dyes change colour on reduction, which living cells bring about.
The subject of assay [6] is DLD-1. The assay can be described thus: Anticancer activity against human DLD-1 cells assessed as reduction in cell viability incubated for 48 hrs by MTT assay. The conditions noted are these: DLD-1, 48 h. In kind it is functional, cell-based.
The nature of assay [7]: Inhibition of Wnt signalling in human HEK293T cells expressing Topflash and renilla luciferase reporter gene incubated for 24 hrs by Dual-luciferase assay. In kind it is cell-based. As to conditions: HEK-293T. (Reporter assays use an easily measured gene product as a stand-in for the process of interest.)
The subject of assay [8] is SW480. The assay can be described thus: Anticancer activity against human SW480 cells assessed as reduction in cell viability incubated for 24 hrs by MTT assay. The assay is classed as functional, cell-based. The conditions noted are these: SW480, 24 h.
Assay [9] concerns LoVo. The assay can be described thus: Anticancer activity against human LoVo cells assessed as reduction in cell viability incubated for 24 hrs by MTT assay. In kind it is functional, cell-based.
Assay [10] relates to HCT-116. The experiment in a line: Antiproliferative activity against human HCT-116 cells assessed as reduction in cell viability incubated for 72 hrs by MTS assay. In kind it is functional, cell-based. The conditions noted are these: HCT-116, 72 h.
For assay [11], the system named is DLD-1. The experiment in a line: Antiproliferative activity against human DLD-1 cells assessed as reduction in cell viability by WST assay. In kind it is functional, cell-based.
The target of assay [12] is CBP/beta catenin (Homo sapiens, UniProt P35222+Q92793). The experiment in a line: Antagonist activity at CBP/beta-catenin (unknown origin) protein-protein interaction. The assay is classed as protein assay.
CBP/beta catenin, sequence (Q92793 whole entry): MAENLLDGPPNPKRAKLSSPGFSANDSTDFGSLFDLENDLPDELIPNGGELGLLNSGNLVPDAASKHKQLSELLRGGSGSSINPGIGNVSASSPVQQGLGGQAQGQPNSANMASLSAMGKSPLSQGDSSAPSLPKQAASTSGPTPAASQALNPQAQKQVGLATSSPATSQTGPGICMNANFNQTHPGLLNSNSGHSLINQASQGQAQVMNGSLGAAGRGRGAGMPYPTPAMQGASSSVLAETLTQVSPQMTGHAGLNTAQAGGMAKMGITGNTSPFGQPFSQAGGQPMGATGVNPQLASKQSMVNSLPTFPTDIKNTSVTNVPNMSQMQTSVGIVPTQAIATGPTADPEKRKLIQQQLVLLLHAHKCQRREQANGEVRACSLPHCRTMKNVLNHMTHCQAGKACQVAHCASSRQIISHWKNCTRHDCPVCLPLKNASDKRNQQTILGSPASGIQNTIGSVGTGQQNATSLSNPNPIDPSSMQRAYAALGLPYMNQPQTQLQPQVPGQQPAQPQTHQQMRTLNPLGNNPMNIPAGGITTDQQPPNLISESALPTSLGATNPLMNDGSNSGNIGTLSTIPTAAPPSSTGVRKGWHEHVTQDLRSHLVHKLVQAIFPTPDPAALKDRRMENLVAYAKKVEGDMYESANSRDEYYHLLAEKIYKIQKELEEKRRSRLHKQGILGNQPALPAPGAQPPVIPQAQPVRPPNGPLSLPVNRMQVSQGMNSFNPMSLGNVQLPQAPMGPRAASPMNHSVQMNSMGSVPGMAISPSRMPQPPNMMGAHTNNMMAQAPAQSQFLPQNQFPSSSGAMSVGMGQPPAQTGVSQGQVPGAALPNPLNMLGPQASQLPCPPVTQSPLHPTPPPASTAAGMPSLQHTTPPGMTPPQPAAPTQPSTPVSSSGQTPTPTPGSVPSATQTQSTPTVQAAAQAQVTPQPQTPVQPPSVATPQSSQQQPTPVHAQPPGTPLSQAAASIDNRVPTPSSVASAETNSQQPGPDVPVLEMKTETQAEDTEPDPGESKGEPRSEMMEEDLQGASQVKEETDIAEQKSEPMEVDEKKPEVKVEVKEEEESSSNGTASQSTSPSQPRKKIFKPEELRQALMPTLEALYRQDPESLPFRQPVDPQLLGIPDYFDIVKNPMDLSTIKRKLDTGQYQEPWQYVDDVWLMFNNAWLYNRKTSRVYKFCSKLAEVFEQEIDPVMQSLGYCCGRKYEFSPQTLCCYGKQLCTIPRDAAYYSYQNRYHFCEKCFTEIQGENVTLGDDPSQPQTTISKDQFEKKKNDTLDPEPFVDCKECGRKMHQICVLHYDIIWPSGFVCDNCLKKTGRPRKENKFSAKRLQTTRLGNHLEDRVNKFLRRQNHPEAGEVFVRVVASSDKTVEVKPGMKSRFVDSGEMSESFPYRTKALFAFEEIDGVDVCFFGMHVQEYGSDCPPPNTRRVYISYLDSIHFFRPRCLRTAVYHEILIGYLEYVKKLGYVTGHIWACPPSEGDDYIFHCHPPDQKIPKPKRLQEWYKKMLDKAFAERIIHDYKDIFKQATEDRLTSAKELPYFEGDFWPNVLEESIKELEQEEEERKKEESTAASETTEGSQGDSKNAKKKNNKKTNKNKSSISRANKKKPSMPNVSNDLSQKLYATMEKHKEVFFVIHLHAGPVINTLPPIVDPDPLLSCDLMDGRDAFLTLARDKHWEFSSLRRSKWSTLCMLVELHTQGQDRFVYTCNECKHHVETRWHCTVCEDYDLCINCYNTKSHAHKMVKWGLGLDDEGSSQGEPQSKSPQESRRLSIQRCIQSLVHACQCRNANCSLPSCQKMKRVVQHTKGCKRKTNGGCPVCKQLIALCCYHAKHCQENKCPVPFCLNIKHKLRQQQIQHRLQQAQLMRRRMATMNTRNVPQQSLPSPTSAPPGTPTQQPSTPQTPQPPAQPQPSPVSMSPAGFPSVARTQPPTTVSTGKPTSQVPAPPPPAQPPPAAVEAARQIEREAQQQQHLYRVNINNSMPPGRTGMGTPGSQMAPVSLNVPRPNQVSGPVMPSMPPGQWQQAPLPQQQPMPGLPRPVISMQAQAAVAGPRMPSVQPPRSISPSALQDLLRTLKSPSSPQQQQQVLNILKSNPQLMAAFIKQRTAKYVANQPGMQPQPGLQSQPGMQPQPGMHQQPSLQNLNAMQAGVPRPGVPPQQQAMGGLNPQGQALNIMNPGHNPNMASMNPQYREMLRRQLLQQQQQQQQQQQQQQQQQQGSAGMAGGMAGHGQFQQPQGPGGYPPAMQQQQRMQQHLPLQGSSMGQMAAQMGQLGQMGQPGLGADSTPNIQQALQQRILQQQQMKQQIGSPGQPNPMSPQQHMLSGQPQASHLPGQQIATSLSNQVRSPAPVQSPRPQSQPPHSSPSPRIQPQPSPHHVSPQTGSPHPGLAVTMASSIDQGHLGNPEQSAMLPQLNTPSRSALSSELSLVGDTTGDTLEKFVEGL
CBP/beta catenin, sequence (P35222 whole entry): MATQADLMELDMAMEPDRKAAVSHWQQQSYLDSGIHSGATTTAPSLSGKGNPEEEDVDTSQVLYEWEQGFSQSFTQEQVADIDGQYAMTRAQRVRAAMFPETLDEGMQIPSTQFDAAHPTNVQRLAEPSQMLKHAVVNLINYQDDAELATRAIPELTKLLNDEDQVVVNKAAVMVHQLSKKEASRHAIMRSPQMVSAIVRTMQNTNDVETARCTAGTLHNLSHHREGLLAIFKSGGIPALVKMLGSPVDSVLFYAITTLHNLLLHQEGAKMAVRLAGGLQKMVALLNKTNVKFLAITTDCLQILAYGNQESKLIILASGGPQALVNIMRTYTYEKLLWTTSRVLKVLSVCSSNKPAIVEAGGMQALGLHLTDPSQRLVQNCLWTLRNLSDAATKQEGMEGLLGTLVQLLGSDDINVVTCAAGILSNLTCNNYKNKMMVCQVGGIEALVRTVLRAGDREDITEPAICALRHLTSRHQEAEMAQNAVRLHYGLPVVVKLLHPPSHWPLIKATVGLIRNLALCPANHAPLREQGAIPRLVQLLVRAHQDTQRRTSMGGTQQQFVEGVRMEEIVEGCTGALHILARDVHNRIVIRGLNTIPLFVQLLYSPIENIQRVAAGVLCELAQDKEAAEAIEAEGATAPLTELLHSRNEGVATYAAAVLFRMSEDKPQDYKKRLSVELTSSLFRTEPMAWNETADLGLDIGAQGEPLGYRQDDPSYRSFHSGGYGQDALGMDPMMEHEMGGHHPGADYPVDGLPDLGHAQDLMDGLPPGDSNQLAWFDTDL
Assay [13] is described as follows: Inhibition of Wnt1 signalling in human HCT-116 cells expressing ST-Luc and renilla firefly luciferase incubated for 24 hrs by dual-luciferase reporter assay. In kind it is cell-based. As to conditions: HCT-116, 24 h.
Assay [14] is described as follows: Inhibition of Wnt1 signalling in human SW480 cells expressing ST-Luc and renilla firefly luciferase incubated for 24 hrs by dual-luciferase reporter assay. The assay is classed as cell-based. As to conditions: SW480, 24 h.
Assay [15] has as its system SW480. The experiment in a line: Antiproliferative activity against human SW480 cells expressing firefly and renilla luciferase assessed as reduction in cell growth incubated for 3 hrs by TOPFlash luciferase assay. As to conditions: SW480, 3 h. The assay is classed as functional, cell-based.
Assay [16] concerns the target DNA polymerase beta (Homo sapiens, UniProt P06746). The experiment in a line: Inhibition of human DNA polymerase beta by fluorescence anisotropy. On the technique in general: Fluorescence polarisation rises when a labelled molecule tumbles more slowly, as on binding a larger partner.
For assay [17], the target named is Catenin beta-1/Transcription factor 7 (Homo sapiens, UniProt P35222+P36402). The assay can be described thus: Inhibition of human beta-catenin (142 to 686 residues)/human TCF (7 to 51 residues) protein-protein interaction incubated for 3 hrs by fluorescence polarization assay.
Catenin beta-1/Transcription factor 7, sequence (P36402 whole entry, the tested form may be a part): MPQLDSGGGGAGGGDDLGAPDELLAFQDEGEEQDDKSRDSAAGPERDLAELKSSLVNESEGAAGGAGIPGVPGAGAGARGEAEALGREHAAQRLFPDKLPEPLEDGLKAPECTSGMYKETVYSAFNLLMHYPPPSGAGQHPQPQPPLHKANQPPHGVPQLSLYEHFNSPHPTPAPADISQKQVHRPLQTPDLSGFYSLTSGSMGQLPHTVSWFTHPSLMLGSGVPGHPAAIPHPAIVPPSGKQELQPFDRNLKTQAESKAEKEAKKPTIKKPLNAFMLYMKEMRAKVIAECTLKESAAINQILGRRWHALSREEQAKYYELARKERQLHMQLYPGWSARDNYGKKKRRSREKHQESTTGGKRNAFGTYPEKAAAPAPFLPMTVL
Catenin beta-1/Transcription factor 7, sequence (P35222 whole entry, the tested form may be a part): as the sequence (P35222 whole entry) above
Assay [18] concerns SW480. The experiment in a line: Anticancer activity against human SW480 cells assessed as cell growth inhibition incubated for 24 hrs by MTS assay. In kind it is functional.
Assay [19] has as its system SW48. The experiment in a line: Anticancer activity against human SW48 cells assessed as cell growth inhibition. In kind it is functional, cell-based.
A short description of assay [20]: Anticancer activity against human colorectal cancer cell lines assessed as reduction in cell viability incubated for 24 to 72 hrs by MTT assay. The assay is classed as functional, cell-based.
The test system of assay [21] is LoVo. The experiment in a line: Antiproliferative activity against human LoVo cells assessed as reduction in cell viability. In kind it is functional, cell-based.
For assay [22], the system named is HT-29. The assay can be described thus: Antiproliferative activity against human HT-29 cells assessed as reduction in cell viability. In kind it is functional, cell-based.
The subject of assay [23] is HCT-116. The experiment in a line: Antiproliferative activity against human HCT-116 cells assessed as reduction in cell proliferation incubated for 72 hrs by CellTiter-Glo assay. In kind it is functional, cell-based. As to conditions: HCT-116, 72 h.
In assay [24] the test system is SW480. The experiment in a line: Anticancer activity against human SW480 cells assessed as reduction in cell viability incubated for 12 to 24 hrs by MTS assay. In kind it is functional, cell-based.
Assay [25] has as its system SW-620. The experiment in a line: Anticancer activity against human SW-620 cells assessed as reduction in cell viability incubated for 24 hrs by CCK-8 assay. The assay is classed as functional, cell-based. As to conditions: SW-620, 24 h.
In assay [26] the test system is KM12. The experiment in a line: Anticancer activity against human KM12 cells assessed as reduction in cell viability incubated for 24 hrs by CCK-8 assay. In kind it is functional, cell-based. The conditions noted are these: KM12, 24 h.
The test system of assay [27] is HCT-116. The assay can be described thus: Antiproliferative activity against human HCT-116 cells assessed as reduction in cell proliferation incubated for 12 to 24 hrs by CCK-8 assay. The assay is classed as functional, cell-based.
Assay [28] has as its system SW480. The experiment in a line: Antiproliferative activity against human SW480 cells assessed as reduction in cell proliferation incubated for 12 to 24 hrs by CCK-8 assay. The assay is classed as functional, cell-based.
Assay [29] relates to SW480. The assay can be described thus: Antiproliferative activity against human SW480 cells assessed as reduction in cell viability incubated for 24 hrs by CCK-8 assay. The assay is classed as functional, cell-based. The conditions noted are these: SW480, 24 h.
The test system of assay [30] is HCT-116. The assay can be described thus: Anticancer activity against human HCT-116 cells assessed as reduction in cell proliferation incubated for 48 hrs by sulforhodamine B assay. In kind it is functional, cell-based. As to conditions: HCT-116, 48 h.
The subject of assay [31] is SW480. The experiment in a line: Anticancer activity against human SW480 cells assessed as reduction in cell proliferation incubated for 48 hrs by sulforhodamine B assay. As to conditions: SW480, 48 h. The assay is classed as functional, cell-based.

We go through 24 compounds from ChEMBL document CHEMBL5226288, “A perspective on medicinal chemistry approaches towards adenomatous polyposis coli and Wnt signal based colorectal cancer inhibitors” (Eur J Med Chem, 2021).

pEC50, pIC50: −log10 of the molar value. Values after ≈ are worked out from the molar mass of the structure shown. Non-standard residues stand in square brackets, D forms with d. Residues, ends and D or L forms follow the SMILES beside them. Hica(2S) = CC(C)C[C@H](O)C(=O)O; NMeV = CN[C@H](C(=O)O)C(C)C; NMeA = CN[C@@H](C)C(=O)O; βAla = NCCC(=O)O

By pEC50 is commonly meant the EC50 on a negative log10 scale, so that one unit is a factor of ten. The term pIC50 denotes the IC50 on a negative log10 scale, so that one unit is a factor of ten. Broadly, the GI50 is the concentration at which growth is held to half of that of the control.

For `Cc1cc(/C=C/c2ccc3cc(N(C)C)ccc3[n+]2C)c(C)n1-c1ccccc1`, the values for the pEC50 in [1] and in assay [2] were 7.25 and 7.37, respectively.

Turning to `C=C1C(=O)O[C@@H]2[C@H]3O[C@]3(C)CC/C=C(\C)CC[C@@H]12`, the pIC50 in assay [3] is 5.18.

As to `C[C@@H]1O[C@H]2O[C@H]3[C@@H](OC[C@H](O)[C@@H]3O)OC(=O)[C@@H]3CC(C)(C)C[C@H]4C5=CC[C@@H]6[C@@]7(C)C[C@H](O)[C@H](O[C@@H]8O[C@H](CO)[C@@H](O)[C@H](O)[C@H]8O[C@@H]8OC[C@H](OC(=O)C[C@](C)(O)CC(=O)O[C@@H]1[C@@H](O[C@@H]1OC[C@@H](O)[C@H](O)[C@H]1O)[C@H]2O)[C@H](O)[C@H]8O)[C@@](C)(CO)[C@@H]7CC[C@@]6(C)[C@]5(C)CCC34`, the pIC50 in assay [4] is 4.40.

Regarding `CCCCCCCCCCCCCC(C(=O)O)C(O)(CC(=O)OC)C(=O)O` (stereo unspecified), the pIC50 in assay [5] and in [6] was 4.00 in each case.

Compound `CCn1c2ccccc2c2cc(C(=O)OC(C)C)nc(-c3cccc4ccccc34)c21` gave a pIC50 in assay [7] of 5.55.

Turning to `C[C@@H]1O[C@@H](O[C@H]2[C@H](O[C@H]3[C@H](O[C@H]4CC[C@@]5(C)C6CC=C7[C@@H]8CC(C)(C)CC[C@]8(C(=O)O)CC[C@]7(C)C6(C)CC[C@H]5C4(C)C)OC[C@H](O)[C@@H]3O)O[C@H](CO)[C@@H](O)[C@@H]2O)[C@H](O)[C@H](O)[C@H]1O` (stereo partly specified), the pIC50 in assay [8] is 5.74; in assay [9], 6.00.

As for `C=CCN1CC(=O)N2C(CN(Cc3cccc4cn(C)nc34)C[C@@H]2Cc2ccc(OP(=O)(O)O)cc2)N1C(=O)NCc1ccccc1` (stereo partly specified), the pIC50 in assay [10] is 6.04.

Regarding `O=C1[C@@H](Cc2ccccc2)N2C(=O)CCN(C(=O)NCc3ccccc3)[C@@H]2CN1Cc1cccc2ccccc12`, the pIC50 in assay [11] was 4.67.

`C[C@H]1[C@H]2N(C(=O)CN(C)N2C(=O)NCc2ccccc2)[C@@H](Cc2ccc(OP(=O)(O)O)cc2)C(=O)N1Cc1cccc2cccnc12` gave a negative logarithm of the IC50 (pIC50) in assay [12] of 6.82.

With `CC[C@]12CCCN3CCc4c(n(c5ccccc45)[C@@H](c4ccc(O)c5c4N[C@H]4CC[C@]6(CC)CCCN7CC[C@]54[C@@H]76)C1)C32` (stereo partly specified), the pIC50 in assay [13] is 5.35; in assay [14], 5.31.

With `O=C(NCc1ccccc1)N1CCC(=O)N2C1CN(Cc1cccc3ccccc13)C[C@@H]2Cc1ccc(O)cc1` (stereo partly specified), the pIC50 in assay [15] was 5.09.

In turn, `Cc1ccc(Nc2nc(NS(=O)(=O)c3cc(C)c(C)cc3C)n[nH]2)cc1` gave a negative-log IC50 (pIC50) in [16] of 5.30.

The compound `Cn1ncc2cc(CCc3nn[nH]n3)ccc21` showed a pIC50 in assay [17] of 5.50.

In the case of `CN1CC(=O)N2C(CN(Cc3cccc4ccccc34)C[C@@H]2Cc2ccc(O)cc2)N1C(=O)NCc1ccccc1` (stereo partly specified), the GI50 in assay [18] was 0.98 µg/mL (≈ 1.78 µM).

`COc1cc(OC)c2c(c1)O[C@@]1(c3ccc(Br)cc3)[C@H](c3ccccc3)C[C@@H](O)[C@@]21O`: the pIC50 in [19] is 8.00.

`C[C@H]1[C@H](OC(=O)CCC(=O)O)O[C@@H]2O[C@@]3(C)CC[C@H]4[C@H](C)CC[C@@H]1[C@@]24OO3` [ARTESUNATE]: the pIC50 in [20] is 4.69.

As for `COc1cc2c(cc1OC)[C@@]13CCN4CC5=CCO[C@H]6CC(=O)N2[C@H]1[C@H]6[C@H]5C[C@H]43` [BRUCINE], the pIC50 in assay [21] was 4.74.

For the compound `Nc1ccc(O)c(C(=O)O)c1` [MESALAMINE], the pIC50 in [22] was 1.70.

On to `CC(=O)c1cc2c(o1)C(=O)c1ccccc1C2=O` [NAPABUCASIN], for which the pIC50 in assay [23] was 6.52.

Turning to `O=C(Nc1ccc([N+](=O)[O-])cc1Cl)c1cc(Cl)ccc1O` [NICLOSAMIDE], in assay [24], the pIC50 is 6.00.

With `CO[C@@H]1C[C@@H](C[C@H]2CC[C@H](C)[C@H]([C@@H](C)C(=O)O)O2)O[C@]2(O[C@](C)([C@H]3CC[C@@](C)([C@@H]4O[C@@H]([C@H]5O[C@@](O)(CO)[C@H](C)C[C@@H]5C)C[C@@H]4C)O3)C[C@H]2C)[C@@H]1C` [NIGERICIN], the pIC50 was 5.86 in assay [25] and 5.07 in [26].

As for `O=c1[nH]c2ccccc2n1C1CCN(CCCC(c2ccc(F)cc2)c2ccc(F)cc2)CC1` [PIMOZIDE], the pIC50 in [27] and in assay [28] was 5.00 each time.

In the case of `CC(C)[C@]12O[C@H]1[C@@H]1O[C@]13[C@]1(O[C@H]1C[C@H]1C4=C(CC[C@@]13C)C(=O)OC4)[C@@H]2O` [TRIPTOLIDE], the pIC50 in [29] was 7.30.

For `CC[C@H](C)[C@@H]1NC(=O)[C@@H]2CCCN2C(=O)[C@H](CC(C)C)OC(=O)CCNC(=O)[C@H](C)N(C)C(=O)[C@H](C(C)C)N(C)C1=O` [destruxin B] (cyclo([Hica(2S)]PI[NMeV][NMeA][βAla])), the pIC50 in assay [30] and in assay [31] was 5.20 throughout.
